# Laboratory results: article PMC9474705 (British journal of pharmacology, 2022)
# pIC50: −log10 of the molar value.
# Key:
# [1] = target: β2AR-RlucII (Homo sapiens, UniProt P07550); assay: BRET Gs; assay type: cell-based; details: agonist, […] min, mini-Gs
# [2] = target: β2AR (β2AR stable cells) (Homo sapiens, UniProt P07550); assay: [3H]DHA competition on membranes; assay type: binding
# [3] = target: β1AR-RlucII (Homo sapiens, UniProt P08588); assay: BRET Gs; assay type: cell-based; details: agonist, […] min, mini-Gs
# Chain of β1AR-RlucII (P08588 whole entry): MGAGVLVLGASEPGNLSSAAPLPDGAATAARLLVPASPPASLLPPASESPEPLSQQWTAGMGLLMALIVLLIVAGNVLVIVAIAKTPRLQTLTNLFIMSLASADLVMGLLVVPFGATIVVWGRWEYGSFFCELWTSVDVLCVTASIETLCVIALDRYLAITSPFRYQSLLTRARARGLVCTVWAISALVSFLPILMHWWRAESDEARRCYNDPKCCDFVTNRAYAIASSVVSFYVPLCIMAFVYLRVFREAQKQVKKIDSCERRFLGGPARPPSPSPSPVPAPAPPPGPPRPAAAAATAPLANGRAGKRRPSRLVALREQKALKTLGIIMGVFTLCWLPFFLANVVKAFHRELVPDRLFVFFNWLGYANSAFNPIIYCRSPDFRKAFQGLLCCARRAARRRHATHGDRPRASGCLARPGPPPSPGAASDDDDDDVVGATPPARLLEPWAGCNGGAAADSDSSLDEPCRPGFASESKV
# Chain of β2AR (β2AR stable cells) (P07550 whole entry): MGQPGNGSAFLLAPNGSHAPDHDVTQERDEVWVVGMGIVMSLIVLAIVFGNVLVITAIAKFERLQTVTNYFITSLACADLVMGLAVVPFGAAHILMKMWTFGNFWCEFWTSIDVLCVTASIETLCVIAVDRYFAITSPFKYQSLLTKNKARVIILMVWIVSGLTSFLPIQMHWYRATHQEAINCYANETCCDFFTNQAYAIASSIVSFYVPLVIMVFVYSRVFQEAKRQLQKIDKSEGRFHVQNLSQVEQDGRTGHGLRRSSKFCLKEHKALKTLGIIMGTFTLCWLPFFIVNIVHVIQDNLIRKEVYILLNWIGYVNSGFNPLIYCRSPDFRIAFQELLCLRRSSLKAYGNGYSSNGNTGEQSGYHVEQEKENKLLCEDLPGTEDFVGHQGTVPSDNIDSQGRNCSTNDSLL
# Chain of β2AR-RlucII (P07550 whole entry): as above
SMILES,EC50 [1],pIC50 [2],EC50 [3]
CCCCNCC(O)c1ccc(O)cc1 (stereo not shown) [Bamethane],all compounds showed efficacy in recruiting Gαs to the receptor,4.50,
CC(CCc1ccccc1)NC(C)C(O)c1ccc(O)cc1 (stereo not shown) [Buphenine],,6.60,
CC(CCc1ccc(O)cc1)NCCc1ccc(O)c(O)c1 (stereo not shown) [Dobutamine],,5.30,DOB was slightly more efficacious for β1AR
Oc1ccc(CC2NCCc3cc(O)c(O)cc32)cc1 (stereo not shown) [Higenamine],,5.30,
CC(NCCc1ccc(O)cc1)C(O)c1ccc(O)cc1 (stereo not shown) [Ritodrine],,5.90,
